This is an account of results in ChEMBL document CHEMBL5518158, “Recent advances in triazoles as tyrosinase inhibitors” (Eur J Med Chem, 2023).

The target in experiment [1] is T1, Mushroom tyrosinase (Agaricus bisporus, UniProt O42713+Q00024+C7FF04+C7FF05). As to the kind of experiment: Inhibition of mushroom tyrosinase using L-DOPA as substrate preincubated for 10 mins. Type of experiment: protein assay.
In another experiment the target is T2, Tyrosinase (Homo sapiens, UniProt P14679).
T2 sequence (P14679 whole entry): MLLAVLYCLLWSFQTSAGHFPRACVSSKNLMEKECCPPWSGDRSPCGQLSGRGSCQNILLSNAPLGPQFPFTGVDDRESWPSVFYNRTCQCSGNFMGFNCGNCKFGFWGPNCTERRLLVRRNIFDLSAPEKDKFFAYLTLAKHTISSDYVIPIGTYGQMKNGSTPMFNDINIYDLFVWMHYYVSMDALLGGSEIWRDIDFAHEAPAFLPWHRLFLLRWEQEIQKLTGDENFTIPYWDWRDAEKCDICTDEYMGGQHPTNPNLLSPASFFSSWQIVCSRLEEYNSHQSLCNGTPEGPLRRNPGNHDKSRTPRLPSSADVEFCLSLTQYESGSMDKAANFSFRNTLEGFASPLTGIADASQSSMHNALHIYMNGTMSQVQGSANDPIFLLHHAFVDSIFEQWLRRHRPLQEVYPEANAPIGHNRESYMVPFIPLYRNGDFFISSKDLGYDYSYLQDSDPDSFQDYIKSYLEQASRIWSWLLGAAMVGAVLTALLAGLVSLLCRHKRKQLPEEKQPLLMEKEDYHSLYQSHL
As to the kind of experiment: Inhibition of C-terminal His-tagged truncated form of human tyrosinase using L-DOPA as substrate by spectrophotometric assay.

For experiment [2], the target named is T1, Mushroom tyrosinase. Kind of experiment: Inhibition of mushroom tyrosinase using L-DOPA as substrate preincubated for 20 mins followed by substrate addition incubated for 10 mins by absorbance based analysis. Type of experiment: protein assay.
In experiment [3] the target is T1, Mushroom tyrosinase. Kind of experiment: Inhibition of mushroom tyrosinase. Type of experiment: protein assay.
Experiment [4] has as its target T1, Mushroom tyrosinase. Kind of experiment: Inhibition of mushroom tyrosinase using L-DOPA as substrate incubated for 20 mins. Type of experiment: protein assay.
Experiment [5] concerns the target T1, Mushroom tyrosinase. Kind of experiment: Inhibition of mushroom tyrosinase using L-DOPA as substrate preincubated for 10 mins followed by substrate addition and measured after 15 mins by spectrophotometric method. Type of experiment: protein assay.
The target in experiment [6] is T1, Mushroom tyrosinase. As to the kind of experiment: Inhibition of mushroom tyrosinase using L-DOPA as substrate pre-treated for 10 mins followed by substrate addition measured for 20 mins by spectrophotometric analysis. Type of experiment: protein assay.
Experiment [7] concerns the target T1, Mushroom tyrosinase. As to the kind of experiment: Inhibition of mushroom tyrosinase using L-DOPA as substrate incubated for 15 mins by spectrophotometric analysis. Type of experiment: protein assay.

Where “and” joins values, the source holds several entries; their conditions need not be identical. Equal values may be shown once.

As a reminder, the IC50 is the midpoint of a concentration-inhibition curve. In the case of `Nn1c(SCc2cc(=O)c(O)co2)nnc1-c1ccccc1`, the IC50 at Mushroom tyrosinase [1] is 7.45 µM.
`O=C1c2ccccc2C(=O)N1Cc1cn(Cc2cccc(Cl)c2)nn1` displayed an IC50 against Tyrosinase of 48.3 µM.
At Mushroom tyrosinase [1], `Cc1nnc(SCc2cc(=O)c(O)co2)n1N` returned an IC50 of 91.03 µM.
Turning to `O=C1NC(=S)NC(=O)C1=Cc1ccccc1OCc1cn(Cc2ccc(Br)cc2)nn1`, half-maximal inhibition on Tyrosinase (IC50) was put at 44.2 µM.
On Mushroom tyrosinase [2], `COc1cc(C(C)=O)ccc1OCc1cn(Cc2cc(=O)c(O)co2)nn1` yielded an IC50 of 0.03 µM.
`CCn1c(CCCc2c[nH]c3ccccc23)nnc1SCC(=O)Nc1ccc(C)cc1C` came in with an IC50 on Mushroom tyrosinase [3] of 0.034 µM.
Same read-out and setting: in the case of `O=C1N=C(Nc2ccccc2)S/C1=C\c1ccc(OCc2cnnn2Cc2ccc(Cl)c(Cl)c2)cc1` it was 49.4 µM; in that of `CCn1c(CCCc2c[nH]c3ccccc23)nnc1SCC(=O)Nc1ccccc1C`, 0.036 µM.
On to `COc1cc(C=O)ccc1O` [VANILLIN], for which the IC50 against Mushroom tyrosinase [3] is 4103 µM.
The compound `CCCCCn1nc(-c2ccccc2)n(CC(=O)NNC(=O)Nc2ccc(Cl)cc2Cl)c1=O` returned an IC50 on Mushroom tyrosinase [1] of 0.001 µM.
In turn, `Oc1ccccc1Cc1n[nH]c(=S)n1/N=C/c1ccc[nH]1` had an IC50 against Mushroom tyrosinase [4] of 26.02 µM.
With `Cc1ccc(Cn2cc(COc3ccc(-c4nc5ccccc5[nH]4)cc3)nn2)cc1`, at Mushroom tyrosinase [3], the IC50 is 10.34 µM.
On the same count and under the same terms, in the case of `C=CCc1ccc(O)c(OC)c1` [EUGENOL] it was 923 µM.
`Nc1nc(Cc2nnc(SCC(=O)NCCc3ccccc3)n2-c2ccccc2)cs1` gave an IC50 on Mushroom tyrosinase [5] of 0.01 µM.
Compound `Cc1ccc(-c2nnc(SCc3cc(=O)c(O)co3)n2N)cc1` displayed an IC50 against Mushroom tyrosinase [1] of 6.25 µM.
Take `CCc1ccccc1NC(=O)CSc1nnc(CCCc2c[nH]c3ccccc23)n1CC`: at Mushroom tyrosinase [3], the IC50 worked out at 0.033 µM.
`Nn1c(SCc2cc(=O)c(O)co2)nnc1-c1ccccc1Cl` displayed an IC50 on Mushroom tyrosinase [1] of 5.35 µM.
With `Cc1ccccc1CNC(=O)CSc1nnc(Cc2csc(N)n2)n1-c1ccccc1`, the IC50 at Mushroom tyrosinase [6] was 16.832 µM; against Mushroom tyrosinase [5], 0.015 µM.
The compound `Cc1cc(C)cc(CNC(=O)CSc2nnc(Cc3csc(N)n3)n2-c2ccccc2)c1` returned an IC50 against Mushroom tyrosinase [5] of 0.24 µM.
In the case of `O=C1NC(=O)C(=Cc2ccccc2OCc2cn(Cc3ccccc3)nn2)C(=O)N1`, the IC50 against Mushroom tyrosinase [7] came out at 44.2 µM.
`O=C1c2ccccc2C(=O)N1Cc1cn(Cc2ccccc2Br)nn1` showed an IC50 at Tyrosinase of 26.5 µM.
For `CCn1c(Cc2csc(N)n2)nnc1SCc1ccc(Cl)cc1Cl`, the IC50 at Mushroom tyrosinase [6] is 0.001 µM.
For `COc1ccc2c(c1)CC/C(=C\c1ccc(OCc3cn(Cc4ccccc4F)nn3)c(OC)c1)C2=O`, the IC50 at Mushroom tyrosinase [3] is 67.18 µM.
`Cc1cccc(CNC(=O)CSc2nnc(Cc3csc(N)n3)n2-c2ccccc2)c1C` returned an IC50 against Mushroom tyrosinase [5] of 2.01 µM.
For `Cc1ccc(C(C)C)c(OCc2cn(Cc3cc(=O)c(O)co3)nn2)c1`, the IC50 on Mushroom tyrosinase [2] stood at 0.69 µM.
Take `Cc1cccc(C)c1CNC(=O)CSc1nnc(Cc2csc(N)n2)n1-c1ccccc1`: the IC50 at Mushroom tyrosinase [5] turned out to be 0.05 µM.
`COc1ccc2c(c1)CC/C(=C\c1ccc(OCc3cn(Cc4cccc(Cl)c4)nn3)c(OC)c1)C2=O` returned an IC50 against Mushroom tyrosinase [3] of 4.64 µM.
Take `CCn1c(Cc2csc(N)n2)nnc1SCc1cccc(Br)c1`: the IC50 on Mushroom tyrosinase [6] stood at 0.002 µM.
On to `Cc1ccc2nc(-c3ccc(OCc4cn(Cc5ccccc5)nn4)cc3)[nH]c2c1`, for which the IC50 against Mushroom tyrosinase [3] came to 43.3 µM.
On the same count and under the same terms, in the case of `NC(=S)N/N=C/c1ccc(OCc2cn(CC(=O)NCc3ccccc3)nn2)cc1` it was 0.11 µM.
At Mushroom tyrosinase [1], `Cn1cnnc1SCc1cc(=O)c(O)co1` had an IC50 of 19.18 µM.
Consider `COc1ccccc1-n1c(SCC(=O)Nc2ccccc2)nnc1-c1ccccc1`, for which the IC50 on Mushroom tyrosinase [3] stood at 0.0238 µM.
Same read-out and setting: in the case of `COc1ccccc1-n1c(SCC(=O)Nc2ccc(Br)cc2)nnc1-c1ccccc1F` it was 0.0048 µM; in that of `CCn1c(CCCc2c[nH]c3ccccc23)nnc1SCC(=O)Nc1cccc(C)c1C`, 0.142 µM.
Consider `O=C(CSc1nnc(-c2ccccc2F)n1-c1ccc(F)cc1)Nc1ccccc1`, for which, on Mushroom tyrosinase [1], the IC50 was 0.11 µM.
Take `CCn1c(CCCc2c[nH]c3ccccc23)nnc1SCC(=O)Nc1c(C)cccc1C`: on Mushroom tyrosinase [3], the IC50 turned out to be 0.035 µM.
The compound `Nn1c(SCc2cc(=O)c(O)co2)nnc1-c1ccccc1Br` came in with an IC50 against Mushroom tyrosinase [1] of 5.98 µM.
The compound `CCOc1ccc(NC(=O)CSc2nnc(CCCc3c[nH]c4ccccc34)n2CC)cc1` showed an IC50 against Mushroom tyrosinase [3] of 0.072 µM.
Compound `O=C1N=C(Nc2ccccc2)S/C1=C\c1ccccc1OCc1cn(Cc2cccc(Br)c2)nn1` returned an IC50 on Mushroom tyrosinase [3] of 9.81 µM.
Turning to `CCc1ccc(CNC(=O)CSc2nnc(Cc3csc(N)n3)n2-c2ccccc2)cc1`, the IC50 against Mushroom tyrosinase [5] turned out to be 0.122 µM.
Compound `O=c1cc(OCc2cn(Cc3cc(=O)c(O)co3)nn2)c2ccccc2o1` yielded an IC50 against Mushroom tyrosinase [2] of 0.02 µM.
With `Cc1ccc(Cn2cc(COc3ccc(-c4nc5ccccc5[nH]4)cc3)nn2)cc1C`, at Mushroom tyrosinase [3], the 50% inhibitory concentration (IC50) was determined as 9.42 µM.
`O=c1ccc2ccc(OCc3cn(Cc4cc(=O)c(O)co4)nn3)cc2o1` displayed an IC50 at Mushroom tyrosinase [2] of 0.23 µM.
Compound `O=C1N=C(Nc2ccncc2)S/C1=C\c1ccccc1OCc1cn(Cc2ccc(Cl)c(Cl)c2)nn1` gave an IC50 on Mushroom tyrosinase [3] of 5.9 µM.
Still for that read-out and setting: in the case of `O=C1N=C(Nc2ccncc2)S/C1=C\c1ccccc1OCc1cn(Cc2ccccc2Cl)nn1` it was 6.34 µM.
Turning to `O=C1NC(=S)NC(=O)C1=Cc1ccccc1OCc1cn(Cc2ccccc2)nn1`, the IC50 against Mushroom tyrosinase [7] was 44.2 µM.
On to `COc1ccccc1Cc1n[nH]c(=S)n1/N=C/Cc1ccc(O)cc1`, for which, at Mushroom tyrosinase [4], the IC50 was 20.27 µM.
As for `O=c1cc(Cn2cc(COc3ccc4c(c3)OCO4)nn2)occ1O`, the IC50 on Mushroom tyrosinase [2] is 0.06 µM.
In turn, `Nn1c(SCc2cc(=O)c(O)co2)nnc1-c1ccc(Cl)cc1` gave an IC50 against Mushroom tyrosinase [1] of 4.5 µM.
Compound `O=c1cc(O)oc(CSc2nnc(-c3ccccc3Cl)n2/N=C/c2ccc(O)c(O)c2)c1` showed an IC50 against Mushroom tyrosinase [1] of 5.2 µM.
On Mushroom tyrosinase [4], `Oc1ccc(/C=N/n2c(Cc3ccccc3F)n[nH]c2=S)cc1` gave an IC50 of 6.23 µM.
As for `O=C1NC(=O)C(=Cc2ccccc2OCc2cn(Cc3ccc(Br)cc3)nn2)C(=O)N1`, the IC50 against Mushroom tyrosinase [7] is 26.8 µM and 49.1 µM.
For the compound `CCn1c(Cc2csc(N)n2)nnc1SCc1ccccc1Cl`, on Mushroom tyrosinase [6], the concentration for half-maximal inhibition (IC50) came to 0.006 µM.
As for `Fc1ccc(/C=N/n2c(Cc3ccccc3F)n[nH]c2=S)cc1`, the IC50 against Mushroom tyrosinase [4] was found to be 10.09 µM.
`Cc1ccc(C(C)C)cc1OCc1cn(Cc2cc(=O)c(O)co2)nn1` came in with an IC50 on Mushroom tyrosinase [2] of 0.07 µM.
`O=C(CSc1nnc(-c2ccc(F)cc2)n1-c1ccc(F)cc1)Nc1ccccc1` showed an IC50 against Mushroom tyrosinase [1] of 0.124 µM.
Regarding `O=C1c2ccccc2C(=O)N1Cc1cn(Cc2ccccc2Cl)nn1`, half-maximal inhibition at Tyrosinase (IC50) required 47.2 µM.
For `CCn1c(Cc2csc(N)n2)nnc1SCc1ccc(Cl)cc1`, the IC50 on Mushroom tyrosinase [6] amounted to 0.006 µM.
For `O=C1c2ccccc2C(=O)N1Cc1cn(Cc2ccc(Br)cc2)nn1`, on Tyrosinase, half-maximal inhibition (IC50) was put at 40.3 µM.
The compound `COc1cc(/C=N/Nc2nnc(S)n2N)ccc1O` gave an IC50 at Mushroom tyrosinase [3] of 14.6 µM.
As to `O=C(CSc1nnc(-c2ccccc2)n1-c1ccc(F)cc1)Nc1ccc(Br)cc1`, the IC50 against Mushroom tyrosinase [1] worked out at 0.142 µM.
As for `O=C1c2ccccc2C(=O)N1Cc1cn(Cc2ccccc2[N+](=O)[O-])nn1`, half-maximal inhibition against Tyrosinase (IC50) was put at 26.2 µM.
The compound `O=C1N=C(Nc2ccccc2)S/C1=C\c1ccccc1OCc1cn(Cc2ccccc2)nn1` came in with an IC50 against Mushroom tyrosinase [3] of 8.92 µM.
Compound `O=c1cc(O)oc(CSc2nnc(-c3ccccc3)n2NCc2ccc(O)cc2O)c1` displayed an IC50 against Mushroom tyrosinase [1] of 1.35 µM.
The compound `Cc1ccc(CNC(=O)CSc2nnc(Cc3csc(N)n3)n2-c2ccccc2)cc1C` came in with an IC50 against Mushroom tyrosinase [5] of 0.113 µM.
